The values below are quoted from earlier work in patent publication US20240344040A1, “PROKARYOTIC AND EUKARYOTIC CELLS WITH BIOSYNTHESIZED SULFOTYROSINE FOR GENETIC INCORPORATION” (William Marsh Rice University, priority 2023, published 2024).

For this series the following is noted: cells incubated with 1 mM pThr.

As to `C[C@@H](OP(=O)(O)O)[C@H](N)C(=O)O` [phosphothreonine], the intracellular detection result was “cannot be detected intracellularly”.
